Measurements from PMC7562719, “Discovery of a CNS penetrant small molecule SMN2 splicing modulator with improved tolerability for spinal muscular atrophy” (Scientific Reports, 2020).

Assays:
SMN protein = SMN protein in iPSC-derived motor neurons (HTRF, western blot); format: cell-based, human; settings: iPSC-derived motor neurons (GM24468), 3 days
Procedure: GM03813 fibroblasts and GM24468-derived MNs were seeded at 1.5 × 10^4 and 4 × 10^4 cells/well in 96-well plates and were treated with TEC-1 or SMN-C3 for 72 h at the concentration of 0.01, 0.03, 0.1, 0.3, 1, or 3 µM. After 72 h exposure of compound, GM24468 derived MNs and GM03813 fibroblasts were washed once with D-PBS (-), lysed with RIPA buffer (Wako) containing cOmplete (Sigma-Aldrich) and PhosSTOP (Sigma-Aldrich). The lysates were spun at 15,000 rpm for 15 min at 4 °C, and the supernatants were collected. The protein concentration was quantified with BCA kit (Wako). The lysates, adjusted to have the same protein amount, were mixed with NuPAGE LDS sample buffer containing DTT and heated at 95 °C for 5 min. Except for HTT detection, each sample (2 µg total protein/lane) was loaded Perfect NT Gel 7.5–15% gel (DRC, Japan) and run at 150 V for 60–70 min with Tris/glycine/SDS running buffer (BIO-RAD, USA). […] After washing with TBS-T four times, chemiluminescence signals were detected by Immunostar Zeta (Wako) and LAS-4000 (GE healthcare). […]
SMN protein concentration of the cells were quantified using an SMN HTRF kit[15] […] The fluorescence emission was read at two different wavelengths (665 nm and 620 nm or 615 nm) using an Envision plate reader (PerkinElmer, USA) excited by 320 nm. The concentration of protein in each cell lysate were measured by BCA kit (BIO-RAD) and used for normalization.

SMNΔ7 mice = assay: murine model of SMA (SMNΔ7 mice): survival, body weight, righting reflex; format: in vivo, mouse; settings: for SMA mice that survived / survivors at P65 / total mice: 20 mg/kg; for survivors at P65 / total mice: SMA mice
Procedure: A pair of heterozygous SMNΔ7 mice[28] (mSmn+/−, SMN2+/+, SMNΔ7+/+) were purchased from Jackson Laboratory (USA, stock number 005025). The homozygous SMNΔ7 mice (affected and referred to as “SMNΔ7 mice”; mSmn−/−, SMN2+/+, SMNΔ7+/+) was generated by cross-bleeding of heterozygous SMNΔ7 mice. All experiments were approved and monitored by the animal experiment committee of Gifu Pharmaceutical University and were performed after approval by the Bioethics and Biosafety Committee of Gifu Pharmaceutical University. All procedures relating to animal care and treatment confirmed to animal care guidelines issued by the National Institutes of Health.
SMNΔ7 mice were treated with 2, 6, and 20 mg/kg TEC-1 (succinate) once a day by intraperitoneal injection (TERUMO, Japan) from P2 to P23. TEC-1 was diluted in 0.9% NaCl (aqueous) for intraperitoneal injection. After P24, TEC-1 was administrated one a day orally using 0.4 × 0.7 mm feeding needle (Primetech Corporation, Japan). For oral administration, TEC-1 was diluted in distilled water (Otsuka Pharmaceutical Factory, Japan). Heterozygous mice received equal volumes of vehicle.
Survival and body weight were assessed daily. Righting reflex test[15] tests were performed […] at P6, 11 and 16. Righting time was defined as the time it took a pup to turn over to its front after being placed completely on its back (maximum 60 s). Dead individuals were set to 60 s.

[1] = biological target: T1, human acetylcholinesterase (Homo sapiens, UniProt P22303); assay: Eurofins selectivity panel: acetylcholinesterase; format: biochemical
T1 construct: purchased Eurofins Inc
T1 sequence (P22303 32-614): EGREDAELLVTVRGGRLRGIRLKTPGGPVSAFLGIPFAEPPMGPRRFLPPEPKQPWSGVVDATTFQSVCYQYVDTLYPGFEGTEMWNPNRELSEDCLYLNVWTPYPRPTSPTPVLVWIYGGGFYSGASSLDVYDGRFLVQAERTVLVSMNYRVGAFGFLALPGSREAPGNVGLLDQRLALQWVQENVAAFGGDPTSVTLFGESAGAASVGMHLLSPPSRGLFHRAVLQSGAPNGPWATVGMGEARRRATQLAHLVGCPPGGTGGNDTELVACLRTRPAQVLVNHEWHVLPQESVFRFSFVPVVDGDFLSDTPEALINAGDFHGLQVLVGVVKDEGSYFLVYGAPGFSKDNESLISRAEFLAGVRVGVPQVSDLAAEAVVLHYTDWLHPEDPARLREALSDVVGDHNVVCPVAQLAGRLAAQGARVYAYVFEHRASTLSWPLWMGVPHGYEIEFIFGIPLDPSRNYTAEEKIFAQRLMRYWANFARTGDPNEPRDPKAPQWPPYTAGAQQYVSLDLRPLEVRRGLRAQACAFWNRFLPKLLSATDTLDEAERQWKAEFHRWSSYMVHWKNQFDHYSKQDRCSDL

Cc1cn2nc(-c3nc4ccc(N5CCN(C)CC5)cc4c(=O)[nH]3)cc2c(C)n1 [TEC-1, 2-(4,6-dimethylpyrazolo[1,5-a]pyrazin-2-yl)-6-(4-methylpiperazin-1-yl)quinazolin-4(3H)-one]
concentration that increased SMA protein (SMN protein): 100 nM
righting reflex latency compared to vehicle-treated mice (SMNΔ7 mice; 2 mg/kg, P16): significantly shortened latency time
SMA mice that survived (SMNΔ7 mice; administered intraperitoneally throughout): 66%
SMA mice that survived (SMNΔ7 mice; oral administration after weaning): 40%
body mass compared to vehicle-treated SMNΔ7 mice (SMNΔ7 mice; 2, 6, 20 mg/kg once a day): increased body mass
survival compared with vehicle-treated SMNΔ7 mice (SMNΔ7 mice; 2, 6, 20 mg/kg once a day, Kaplan–Meier to P65): enhanced the survival
survivors at P65 / total mice (SMNΔ7 mice; 20 mg/kg once daily (i.p. P2-P23, then p.o.)): 4 of 10
survivors at P65 / total mice (SMNΔ7 mice; 20 mg/kg once daily (i.p.-i.p.), TEC-1 succinate): 2 of 3
survival until weaning (SMNΔ7 mice; all SMA model mice, 20 mg/kg intraperitoneally): survived until weaning
IC50 [1]: 1190 nM
